Reference: PMC4805609, “Estrogenic Effects of Several BPA Analogs in the Developing Zebrafish Brain” (Frontiers in Neuroscience, 2016)

Tests used:
zfERβ1 [1] = target: T1, zfERβ1 (Danio rerio, UniProt Q5PR29); test: competitive binding assay vs [3H]-E2 on in vitro translated zfERβ1; parameters: species or system zebrafish
T1 sequence (Q5PR29 1-592): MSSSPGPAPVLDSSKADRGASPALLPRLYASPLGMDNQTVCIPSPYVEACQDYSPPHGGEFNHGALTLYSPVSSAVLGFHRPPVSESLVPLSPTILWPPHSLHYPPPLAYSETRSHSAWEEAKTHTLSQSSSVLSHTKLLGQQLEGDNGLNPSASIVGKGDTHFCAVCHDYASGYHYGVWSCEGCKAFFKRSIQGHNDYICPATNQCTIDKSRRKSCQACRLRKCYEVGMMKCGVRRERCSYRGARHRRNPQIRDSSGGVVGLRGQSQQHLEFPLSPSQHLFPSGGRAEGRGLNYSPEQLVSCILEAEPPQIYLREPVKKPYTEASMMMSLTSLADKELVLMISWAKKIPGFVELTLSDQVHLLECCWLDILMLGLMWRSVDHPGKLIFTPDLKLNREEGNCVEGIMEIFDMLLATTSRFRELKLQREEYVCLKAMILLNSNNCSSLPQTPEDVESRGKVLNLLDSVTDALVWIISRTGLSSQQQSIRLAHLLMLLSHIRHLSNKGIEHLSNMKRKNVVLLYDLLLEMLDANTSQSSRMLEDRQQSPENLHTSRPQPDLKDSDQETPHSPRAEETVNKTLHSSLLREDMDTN
Description: (§1) We also performed a competitive binding assay to test the binding properties of our compounds of interest with the three zfERs (Blair et al., [2000]). The three zebrafish estrogen receptor proteins were synthesized using the Topo-pcDNA3 expression vector containing the coding region of zfERα, zfERβ1, and zfERβ2 (Menuet et al., [2002]). The TNT Quick Coupled Transcription/Translation Systems kit (Promega, Madison, WI, USA) was used for synthesis of zfER proteins by adding 1 μg of each ER expression vector and according to the manufacturer's protocol. […] IC50 were calculated using GraphPad Prism, version 6.07.

zfERα = target: T2, zfERα (Danio rerio, UniProt P57717); test: competitive binding assay vs [3H]-E2 on in vitro translated zfERα; parameters: containing the coding regions of each zebrafish estrogen receptor cDNA; species or system zebrafish; conditions: for receptor-binding activity: competition with [3H]-E2, ERα, Figure 8A
T2 sequence (P57717 1-569): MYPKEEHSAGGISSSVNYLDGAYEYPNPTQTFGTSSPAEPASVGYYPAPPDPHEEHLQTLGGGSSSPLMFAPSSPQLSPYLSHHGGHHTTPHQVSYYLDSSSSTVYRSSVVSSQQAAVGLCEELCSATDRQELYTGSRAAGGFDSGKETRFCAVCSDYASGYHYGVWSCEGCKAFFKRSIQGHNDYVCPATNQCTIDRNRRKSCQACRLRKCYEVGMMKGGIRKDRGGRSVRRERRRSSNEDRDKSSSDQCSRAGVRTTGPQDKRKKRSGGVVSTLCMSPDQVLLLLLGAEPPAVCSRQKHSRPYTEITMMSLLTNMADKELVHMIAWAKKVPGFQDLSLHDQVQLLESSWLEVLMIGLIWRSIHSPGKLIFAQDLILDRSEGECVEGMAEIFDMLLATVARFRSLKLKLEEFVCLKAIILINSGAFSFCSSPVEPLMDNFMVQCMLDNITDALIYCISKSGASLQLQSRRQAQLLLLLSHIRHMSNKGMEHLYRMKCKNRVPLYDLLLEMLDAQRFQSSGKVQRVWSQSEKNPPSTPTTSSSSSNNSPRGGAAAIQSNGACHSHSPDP
Description: as §1

zfERβ1 [2] = target: T1, zfERβ1; test: cyp19a1b-luciferase reporter gene assay in U251-MG glial cells transfected with zfERβ1; format: cell-based, zebrafish; conditions: 10–6 M, 24 h, U251-MG cells with ERβ1, vs DMSO
Source text: The zfER-α, zfER-β1, and zfER-β2 expression vectors correspond to Topo-pcDNA3 expression vector (Invitrogen, San Diego, CA, USA), containing the coding regions of each zebrafish estrogen receptor cDNA as previously described (Menuet et al., [2002]). The cyp19a1b-Luciferase plasmid consists of 500 bp of the proximal promoter region of zebrafish cyp19a1b gene, containing an ERE, coupled to the luciferase reporter gene (Menuet et al., [2002]).
Human U251-MG glial cells were maintained in phenol red-free Dulbecco's Modified Eagle's Medium (DMEM; Life Technologies, Saint Aubin, France) supplemented with 10% fetal calf serum (Biowest, Nuaillé, France), 4 mM L-Glutamine (Gibco, Carlsbad, CA, USA) and 1 mM Na-Pyruvate (Life Technologies, Saint Aubin, France) and kept at 37°C and 5% CO2 atmosphere (Le Page et al., [2006]). The medium was also supplemented with 20 U/mL penicillin, 20 μg/mL streptomycin, and 50 ng/mL amphotericin B (Gibco). For transfections, cells were plated in 24-well plates at a density of 25,000 cells/ml in the same medium, except the fetal calf serum was charcoal-treated and used at a concentration of 2.5%. Cells were transfected with 25 ng/well either the vector expression containing or not the zfERα, zfERβ1, zfERβ2 coding region and cytomegalovirus [CMV]−β-Galactosidase, and 150 ng/well of the cyp19a1b-Luciferase reporter plasmid, using JetPEI as a transfection reagent (Polyplus Transfection, Illkirch, France). […] Luciferase activity was measured 24 h later (Luciferase assay system, Promega, Madison, WI, USA). β-Galactosidase activity was used to normalize transfection efficiency. Chemicals were tested in at least 3 independent experiments and each experiment was performed in triplicate.

zfERβ2 = zfERβ2 (Danio rerio, UniProt Q7ZU32)
Description: as §1

Chain of zfERβ2 (Q7ZU32 1-553): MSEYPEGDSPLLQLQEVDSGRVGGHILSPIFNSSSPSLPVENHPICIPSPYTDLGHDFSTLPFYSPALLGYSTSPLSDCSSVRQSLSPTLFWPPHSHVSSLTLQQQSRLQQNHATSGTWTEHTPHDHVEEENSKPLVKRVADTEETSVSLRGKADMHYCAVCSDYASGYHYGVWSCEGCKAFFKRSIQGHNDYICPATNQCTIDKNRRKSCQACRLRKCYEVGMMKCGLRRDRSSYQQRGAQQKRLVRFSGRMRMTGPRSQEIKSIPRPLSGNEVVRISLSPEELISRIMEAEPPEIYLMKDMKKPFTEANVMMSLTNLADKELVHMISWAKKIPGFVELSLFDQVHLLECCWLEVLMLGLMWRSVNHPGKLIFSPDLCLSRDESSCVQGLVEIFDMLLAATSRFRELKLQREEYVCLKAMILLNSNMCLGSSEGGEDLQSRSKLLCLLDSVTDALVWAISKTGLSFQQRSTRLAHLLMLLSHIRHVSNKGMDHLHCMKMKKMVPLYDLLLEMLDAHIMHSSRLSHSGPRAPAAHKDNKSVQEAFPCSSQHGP

Compound: Oc1ccc(C(c2ccc(O)cc2)(C(F)(F)F)C(F)(F)F)cc1 [BPAF, 2,2-bis(4-hydroxylphenyl)hexafluoropropane]
- IC50 (zfERβ1 [1]): 660 nM
- receptor-binding activity (zfERα): bind in vitro to ERα receptor
- IC50 (zfERα; displacement of 10^−9 M [3H]-E2, ERα): 76 nM

Compound: CC(c1ccccc1)(c1ccc(O)cc1)c1ccc(O)cc1 [BPAP, 4,4′-(1-phenylethylidene)bisphenol]
- cyp19a1b-luciferase reporter gene induction (zfERβ1 [2]): did not stimulate

Compound: O=S(=O)(c1ccc(O)cc1)c1ccc(O)cc1 [BPS, bis-(4-hydroxyphenyl)sulfone]
- receptor-binding activity (zfERβ1 [1]; competition with [3H]-E2, ERβ1, Figure 8B): almost no binding affinities
- receptor-binding activity (zfERα): almost no binding affinities
- receptor-binding activity (zfERβ2): almost no binding affinities
- cyp19a1b-luciferase reporter gene induction (zfERβ1 [2]): did not stimulate
